# Measured values taken from PubChem BioAssay AID330 (DTP/NCI, 2004).
# “And” between values parts separate entries of the source, which are not always exact repeats. Identical values can stand only once. Inconclusive results and toxic doses are left out.
# System: P388 leukemia ip, CD2F1 mice, survival T/C
# Experiment: NCI In Vivo Anticancer Drug Screen. Data for tumor model P388 Leukemia (intraperitoneal) in CD2F1 (CDF1) mice
# Settings: endpoint: median survival time, higher = longer survival
# Outline: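 Mice carrying the transplanted tumor received test compound or vehicle. Survival was recorded in each group, and the value is the treated-group measurement divided by that of the vehicle-treated control group.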
# [1] = dose: 50.0 mg/kg/injection, schedule: Q01DX005 (ip), vehicle: saline with Tween-80
# [2] = dose: 100.0 mg/kg/injection, schedule: Q01DX005 (ip), vehicle: saline with Tween-80
# [3] = dose: 60.0 mg/kg/injection, schedule: Q01DX005 (ip), vehicle: saline with Tween-80
# [4] = dose: 120.0 mg/kg/injection, schedule: Q01DX005 (ip), vehicle: saline with Tween-80
# [5] = dose: 60.0 mg/kg/injection, schedule: Q01DX005 (ip), vehicle: Klucel (hydroxypropylcellulose) (HPC)
smiles,measurement,setting,value
CC12c3ccccc3CCN1C(c1ccccc1)=NN2c1ccccc1 (configuration not stated),T/C,"dose: 100.0 mg/kg/injection, schedule: Q01DX001 (ip), vehicle: saline with Tween-80",105 % of control
same,T/C,"dose: 200.0 mg/kg/injection, schedule: Q01DX001 (ip), vehicle: saline with Tween-80",103 % of control
same,T/C,"dose: 400.0 mg/kg/injection, schedule: Q01DX001 (ip), vehicle: saline with Tween-80",102 % of control
COc1ccc(NCCc2ccc(-n3ncc(C(=O)NN)c3N)nn2)cc1OC,T/C,"dose: 75.0 mg/kg/injection, schedule: Q01DX005 (ip), vehicle: other",93 % of control
same,T/C,"dose: 150.0 mg/kg/injection, schedule: Q01DX005 (ip), vehicle: other",93 % of control
same,T/C,"dose: 250.0 mg/kg/injection, schedule: Q01DX005 (oral), vehicle: water",100 % of control
same,T/C,"dose: 500.0 mg/kg/injection, schedule: Q01DX005 (oral), vehicle: water",107 % of control
same,T/C,"dose: 1000.0 mg/kg/injection, schedule: Q01DX005 (oral), vehicle: water",110 % of control
CC1(C(=O)O)CCCC2(C)C3CC(=O)OC3(CC(=O)O)CCC12 (configuration not stated),T/C,"dose: 7.5 mg/kg/injection, schedule: Q01DX009 (ip), vehicle: saline + alcohol",91 % of control
same,T/C,"dose: 15.0 mg/kg/injection, schedule: Q01DX009 (ip), vehicle: saline + alcohol",98 % of control
same,T/C,"dose: 30.0 mg/kg/injection, schedule: Q01DX009 (ip), vehicle: saline + alcohol",103 % of control
CCOC(=O)N1CCc2cc3c(cc2C1Cc1ccc(OC)c(OC)c1CCl)OCO3 (configuration not stated),T/C,[1],100 % of control
same,T/C,[2],92 % of control
CC1C(=O)OC2C1CCC1(C)C=C(Cl)C(=O)C(C)(Cl)C21O (configuration not stated),T/C,"dose: 50.0 mg/kg/injection, schedule: Q04DX002 (ip), vehicle: saline with Tween-80",111 % of control
same,T/C,"dose: 100.0 mg/kg/injection, schedule: Q04DX002 (ip), vehicle: saline with Tween-80",107 % of control
same,T/C,"dose: 200.0 mg/kg/injection, schedule: Q04DX002 (ip), vehicle: saline with Tween-80",100 % of control
CN1C(NN)=NS(=O)(=O)c2ccccc21,T/C,[3],106 % of control
same,T/C,[4],103 % of control
same,T/C,"dose: 240.0 mg/kg/injection, schedule: Q01DX005 (ip), vehicle: saline with Tween-80",106 % of control
Cc1cc(N2C(=O)CCSC2=S)ccc1Br,T/C,"dose: 50.0 mg/kg/injection, schedule: Q01DX009 (ip), vehicle: suspension in saline",87 % of control
same,T/C,"dose: 100.0 mg/kg/injection, schedule: Q01DX009 (ip), vehicle: suspension in saline",104 % of control
same,T/C,"dose: 200.0 mg/kg/injection, schedule: Q01DX009 (ip), vehicle: suspension in saline",116 % of control
COc1ccc(Oc2cc3c(cc2OC)CCN(C)C3)cc1,T/C,"dose: 12.5 mg/kg/injection, schedule: Q01DX009 (ip), vehicle: saline",108 % of control
same,T/C,"dose: 25.0 mg/kg/injection, schedule: Q01DX009 (ip), vehicle: saline",104 % of control
same,T/C,"dose: 50.0 mg/kg/injection, schedule: Q01DX009 (ip), vehicle: saline",99 % of control and 107 % of control
C=CC#N,T/C,"dose: 50.0 mg/kg/injection, schedule: Q01DX009 (ip), vehicle: saline with Tween-80",99 % of control
same,T/C,"dose: 100.0 mg/kg/injection, schedule: Q01DX009 (ip), vehicle: saline with Tween-80",95 % of control
same,T/C,"dose: 200.0 mg/kg/injection, schedule: Q01DX009 (ip), vehicle: saline with Tween-80",90 % of control
COc1ccc(-n2c(O)c(N=Nc3nc4ccc([N+](=O)[O-])cc4s3)c(=O)n(-c3ccccc3)c2=S)cc1,T/C,[5],103 % of control
same,T/C,"dose: 120.0 mg/kg/injection, schedule: Q01DX005 (ip), vehicle: Klucel (hydroxypropylcellulose) (HPC)",100 % of control
same,T/C,"dose: 240.0 mg/kg/injection, schedule: Q01DX005 (ip), vehicle: Klucel (hydroxypropylcellulose) (HPC)",91 % of control
COC(=O)C1C(C(=O)OC)C2N(c3ccccc3)C=NN2C1C(=O)c1ccccc1 (configuration not stated),T/C,[1],96 % of control
same,T/C,[2],103 % of control
same,T/C,"dose: 200.0 mg/kg/injection, schedule: Q01DX005 (ip), vehicle: saline with Tween-80",93 % of control
COc1cc2c(c(OC)c1OC)-c1cc3c(cc1CC1COC(=O)N1C2)OCO3 (configuration not stated),T/C,"dose: 15.0 mg/kg/injection, schedule: Q01DX005 (ip), vehicle: Klucel (hydroxypropylcellulose) (HPC)",90 % of control and 94 % of control
same,T/C,"dose: 30.0 mg/kg/injection, schedule: Q01DX005 (ip), vehicle: Klucel (hydroxypropylcellulose) (HPC)",100 % of control and 105 % of control
same,T/C,[5],103 % of control and 116 % of control and 96 % of control
COc1ccccc1N/N=c1\c2nc3ccccc3nc1n(-c1ccccc1C)c(=S)n2-c1ccccn1,T/C,[3],102 % of control
same,T/C,[4],96 % of control
COc1cc(C2=NCCc3cc4c(cc32)OCO4)cc(OC)c1OC,T/C,"dose: 50.0 mg/kg/injection, schedule: Q01DX005 (ip), vehicle: saline",100 % of control and 101 % of control
same,T/C,"dose: 100.0 mg/kg/injection, schedule: Q01DX005 (ip), vehicle: saline",105 % of control and 118 % of control
same,T/C,"dose: 200.0 mg/kg/injection, schedule: Q01DX005 (ip), vehicle: saline",152 % of control
